This is an account of results in patent US20050170989A1, “Fluorine-containing water-soluble nonionic surface-active compounds, use thereof and process for preparation of the compounds” (DAIKIN INDUSTRIES, LTD., priority 2002, published 2005).

Holding throughout (assay type): physicochemical
Series [1] in a line: Water solubility evaluation, observed with the naked eye. To be noted: 25° C.; for Water Solubility 1%: 1 wt. % aqueous mixture; for Water Solubility 5%: 5 wt. % aqueous mixture; for Water Solubility 50%: 50 wt. % aqueous mixture. As to the method: For the evaluation of water solubility, a uniform liquid was used that was obtained by heating each compound at about 60° C. 5g aqueous mixtures were prepared at predetermined concentrations (1 wt. %, 5 wt. % and 50 wt. %) in capped sample bottles.

Series [2] is described as follows: Static surface tension by the Wilhelmy method (plate method). The conditions noted are these: 0.1 wt. % aqueous solution, left 1 day, 25° C. As to the method:
For the measurement of surface tension, a uniform liquid was used that was obtained by heating each compound at about 60° C. The compounds were each dissolved in water to prepare 10 g of 0.1 wt. % aqueous solutions. After the aqueous solutions were left to stand for 1 day, the static surface tension thereof was measured at 25° C. according to the Wilhelmy method (plate method). The measurement instrument used was a “SURFACE TENSIOMETER CBVP-A3” (product of Kyowa Interface Science Co., Ltd.).

Series [3] in a line: Dynamic surface tension by the maximum bubble pressure method. To be noted: 0.5 wt. % aqueous solution, 25° C., at 100 milliseconds. As to the method: For the measurement of dynamic surface tension, each compound was dissolved in water, heated if necessary, to prepare 80 g of 0.5 wt. % aqueous solutions. The dynamic surface tension thereof was measured at 25° C. according to the maximum bubble pressure method. The obtained value was that measured at 100 milliseconds. The measurement instrument used was a “KRUSS BUBBLE PRESSURE TENSIOMETER-BP2”.

Consider “C18H33COO—(CH2CH2O)23—COC18H33 [Comparative Example 9, reference compound]”, for which, in series [1], the “Water Solubility 1%” value is given as “Dissolved”, the “Water Solubility 5%” value is listed as “Dissolved” and the “Water Solubility 50%” value is on record as “Uniform gel”. Moreover, in series [2], the “Static Surface Tension 0.10%” value was 34.8 mN/m. Also, the “Dynamic Surface Tension 0.50%” value in series [3] worked out at 61 mN/m.
Consider “C4F9—CH2CH(OH)CH2O—(CH2CH2O)20—C18H37 [Example 4]”, for which, in series [1], the “Water Solubility 1%” value is on record as “Dissolved”, the “Water Solubility 5%” value was “Dissolved” and the “Water Solubility 50%” value is on record as “Uniform gel”. Moreover, the “Static Surface Tension 0.10%” value in series [2] was 24.1 mN/m. The “Dynamic Surface Tension 0.50%” value in series [3] was 36 mN/m.
Take “C4F9—CH2CH(OH)CH2O—(CH2CH2O)25—C12H25 [Example 6]”: in series [1], the “Water Solubility 1%” value is listed as “Dissolved”, the “Water Solubility 5%” value is “Dissolved” and the “Water Solubility 50%” value is on record as “Dissolved”. The “Static Surface Tension 0.10%” value in series [2] is 23.1 mN/m. For the same substance, the “Dynamic Surface Tension 0.50%” value in series [3] was 35 mN/m.
“C4F9—CH2CH(OH)CH2O—(CH2CH2O)40—C16H33 [Example 3]”: in series [1], the “Water Solubility 1%” value is listed as “Dissolved”, the “Water Solubility 5%” value was “Dissolved” and the “Water Solubility 50%” value is given as “Dissolved”. Moreover, the “Static Surface Tension 0.10%” value in series [2] came out at 30.5 mN/m. Moreover, in series [3], the “Dynamic Surface Tension 0.50%” value is 45 mN/m.
As for “C4F9—CH2CH(OH)CH2O—(CH2CH2O)21—C12H25 [Example 5]”, in series [1], the “Water Solubility 1%” value is on record as “Dissolved”, the “Water Solubility 5%” value is reported as “Dissolved” and the “Water Solubility 50%” value is recorded as “Dissolved”. Further, the “Static Surface Tension 0.10%” value in series [2] was 21.9 mN/m. The “Dynamic Surface Tension 0.50%” value in series [3] came out at 30 mN/m.
Regarding “C4F9—CH2CH(OH)CH2O—(CH2CH2O)25—C16H33 [Example 2]”, in series [1], the “Water Solubility 1%” value was “Dissolved”, the “Water Solubility 5%” value was “Dissolved” and the “Water Solubility 50%” value is reported as “Dissolved”. In addition, the “Static Surface Tension 0.10%” value in series [2] is reported as 23.8 mN/m. Moreover, in series [3], the “Dynamic Surface Tension 0.50%” value is 34 mN/m.
As for “C4F9—CH2CH(OH)CH2O—(CH2CH2O)23—CH2CH(OH)CH2—C4F9 [Example 7]”, in series [1], the “Water Solubility 1%” value is “Dissolved”, the “Water Solubility 5%” value is on record as “Dissolved” and the “Water Solubility 50%” value was “Dissolved”. In series [2], the “Static Surface Tension 0.10%” value came to 18.4 mN/m. Also, the “Dynamic Surface Tension 0.50%” value in series [3] is listed as 32 mN/m.
As to “C4F9—CH2CH(OH)CH2O—(CH2CH2O)23—C16H33 [Example 1]”, in series [1], the “Water Solubility 1%” value is “Dissolved”, the “Water Solubility 5%” value is given as “Dissolved” and the “Water Solubility 50%” value is listed as “Dissolved”. Moreover, the “Static Surface Tension 0.10%” value in series [2] came to 24.2 mN/m. For the same substance, the “Dynamic Surface Tension 0.50%” value in series [3] is 34 mN/m.
Consider “C4F9—CH2CH(OH)CH2O—(CH2CH2O)45—CH2CH(OH)CH2—C4F9 [Example 9]”, for which, in series [1], the “Water Solubility 1%” value is “Dissolved”, the “Water Solubility 5%” value was “Dissolved” and the “Water Solubility 50%” value is reported as “Dissolved”. For the same substance, the “Static Surface Tension 0.10%” value in series [2] came out at 19.1 mN/m. In addition, the “Dynamic Surface Tension 0.50%” value in series [3] turned out to be 34 mN/m.
Consider “C4F9—CH2CH(OH)CH2O—(CH2CH2O)35—CH2CH(OH)CH2—C4F9 [Example 8]”, for which, in series [1], the “Water Solubility 1%” value was “Dissolved”, the “Water Solubility 5%” value is given as “Dissolved” and the “Water Solubility 50%” value is “Dissolved”. Moreover, in series [2], the “Static Surface Tension 0.10%” value is given as 18.6 mN/m. The “Dynamic Surface Tension 0.50%” value in series [3] came out at 32 mN/m.
In the case of “C16H33O—(CH2CH2O)15—H [Comparative Example 8, reference compound]”, in series [1], the “Water Solubility 1%” value was “Dissolved”, the “Water Solubility 5%” value was “Suspended” and the “Water Solubility 50%” value is recorded as “Solid”. Moreover, in series [2], the “Static Surface Tension 0.10%” value worked out at 37.5 mN/m. Further, the “Dynamic Surface Tension 0.50%” value in series [3] is on record as 59 mN/m.
